Test results published in patent US20220096450A1, “Compounds and Methods for Treating or Preventing Heart Failure” (DREXEL UNIVERSITY, priority 2019, published 2022).

target: SQOR (Homo sapiens, UniProt Q9Y6N5); assay: DCIP endpoint assay of SQOR activity; type: biochemical; details: Table 1, SAR of Set A/A′ and Set B; read-out: IC50
Method: The assay is based on the ability of reduced CoQ1, which is produced in the SQOR reaction, to nonenzymically reduce 2,6-dichloroindiphenol (DCIP) (Δεox-red=20 mM−1 cm−1 at 600 nm). Reaction mixtures containing SQOR, substrates (H2S, sulfite, CoQ1) and various concentrations of an inhibitor are incubated in 96-well plates for 60 s. The reactions are quenched by addition of formaldehyde and N-ethylmaleimide to denature SQOR and consume unreacted H2S, respectively, and are then incubated for 10 min prior to addition of DCIP. The absorbance at 600 nm is read 30 s after DCIP addition by using a BioTek Synergy 2 plate reader.

Chain of SQOR (Q9Y6N5 whole entry): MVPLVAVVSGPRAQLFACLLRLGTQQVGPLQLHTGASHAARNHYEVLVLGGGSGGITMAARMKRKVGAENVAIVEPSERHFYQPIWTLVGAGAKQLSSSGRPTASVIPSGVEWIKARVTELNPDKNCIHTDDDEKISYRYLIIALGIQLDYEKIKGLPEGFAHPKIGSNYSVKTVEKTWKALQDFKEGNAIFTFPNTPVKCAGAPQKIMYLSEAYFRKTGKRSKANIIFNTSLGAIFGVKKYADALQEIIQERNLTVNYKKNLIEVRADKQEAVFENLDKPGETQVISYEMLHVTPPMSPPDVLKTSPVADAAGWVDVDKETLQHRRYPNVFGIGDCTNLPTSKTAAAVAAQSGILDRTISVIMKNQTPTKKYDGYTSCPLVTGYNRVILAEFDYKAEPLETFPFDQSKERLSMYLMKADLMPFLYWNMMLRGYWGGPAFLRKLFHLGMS

IC50 [nM] | SMILES
260 | CCOc1nc2c(c(-c3ccc(OC)cc3)c1C#N)Cc1ccccc1-2 [Compound 5, 2-ethoxy-4-(4-methoxyphenyl)-5H-indeno[1,2-b]pyridine-3-carbonitrile]
1100 | COc1nc2c(c(-c3ccc(C(F)(F)F)cc3)c1C#N)Cc1ccccc1-2 [Compound 8, 2-methoxy-4-(4-(trifluoromethyl)phenyl)-5H-indeno[1,2-b]pyridine-3-carbonitrile]
30 | CCOC(=O)COc1nc(-c2ccccc2)cc(-c2ccccc2)c1C#N [Compound 11, ethyl 2-((3-cyano-4,6-diphenylpyridin-2-yl)oxy)acetate]
19 | CCOc1nc(-c2ccccc2)cc(-c2ccccc2)c1C#N [Compound 13, 2-ethoxy-4,6-diphenylnicotinonitrile]
12000 | N#Cc1c(-c2ccccc2)cc(-c2ccc(O)cc2)nc1N [Compound 17, 2-amino-6-(4-hydroxyphenyl)-4-phenylnicotinonitrile]
14000 | Cc1ccc(-c2cc(-c3ccc4c(c3)OCO4)c(C#N)c(N)n2)cc1C [Compound 18, 2-amino-4-(benzo[d][1,3]dioxol-5-yl)-6-(3,4-dimethylphenyl)nicotinonitrile]
440 | O=[N+]([O-])c1cc(Cl)c(-n2cccc2)cc1N1CCOCC1 [Compound 19, 4-(4-chloro-2-nitro-5-(1H-pyrrol-1-yl)phenyl)morpholine]

Second part, the compound before the results:

SMILES | IC50 [nM]
O=[N+]([O-])c1cc(Cl)c(-n2cccc2)cc1N1CCCCC1 [Compound 2, 1-(4-chloro-2-nitro-5-(1H-pyrrol-1-yl)phenyl)piperidine] | 25
COc1nc2c(c(-c3ccccc3)c1C#N)Cc1ccccc1-2 [Compound 4, 2-methoxy-4-phenyl-5H-indeno[1,2-b]pyridine-3-carbonitrile] | 21
COc1nc2c(c(-c3ccccc3Cl)c1C#N)Cc1ccccc1-2 [Compound 6, 4-(2-chlorophenyl)-2-methoxy-5H-indeno[1,2-b]pyridine-3-carbonitrile] | 340
COc1nc2c(c(-c3ccc(SC)cc3)c1C#N)Cc1ccccc1-2 [Compound 7, 2-methoxy-4-(4-(methylthio)phenyl)-5H-indeno[1,2-b]pyridine-3-carbonitrile] | 880
COc1nc2c(c(-c3cc(Cl)ccc3F)c1C#N)Cc1ccccc1-2 [Compound 9, 4-(5-chloro-2-fluorophenyl)-2-methoxy-5H-indeno[1,2-b]pyridine-3-carbonitrile] | 3500
COc1cccc(-c2c(C#N)c(OC)nc3c2Cc2ccccc2-3)c1 [Compound 10, 2-methoxy-4-(3-methoxyphenyl)-5H-indeno[1,2-b]pyridine-3-carbonitrile] | 6100
CCOc1nc(-c2ccccc2)cc(-c2ccc3c(c2)OCO3)c1C#N [Compound 12, 4-(benzo[d][1,3]dioxol-5-yl)-2-ethoxy-6-phenylnicotinonitrile] | 890
N#Cc1c(-c2ccccc2)cc(-c2ccc(F)cc2)nc1N [Compound 14, 2-amino-6-(4-fluorophenyl)-4-phenylnicotinonitrile] | 600
Cc1ccc(C)c(-c2cc(-c3ccc4c(c3)OCO4)c(C#N)c(N)n2)c1 [Compound 15, 2-amino-4-(benzo[d][1,3]dioxol-5-yl)-6-(2,5-dimethylphenyl)nicotinonitrile] | 1100
Cc1ccc(-c2cc(-c3ccccc3)c(C#N)c(N)n2)cc1 [Compound 16, 2-amino-4-phenyl-6-(p-tolyl)nicotinonitrile] | 11000
O=[N+]([O-])c1cc(Cl)c(-n2cccc2)cc1N1CCCC1 [Compound 20, 1-(2-chloro-4-nitro-5-(pyrrolidin-1-yl)phenyl)-1H-pyrrole] | 460

same assay, conditions: Table 2, SAR of Set C; read-out: IC50

IC50 [nM] | SMILES
8 | Cc1ccc(Sc2cc(N3CCOCC3)c(C)cc2[N+](=O)[O-])cc1 [Compound 3, 4-(2-methyl-4-nitro-5-(p-tolylthio)phenyl)morpholine]
24 | Cc1cc([N+](=O)[O-])c(Sc2ccc(Cl)cc2)cc1C1SCCS1 [Compound 32, 2-(5-((4-chlorophenyl)thio)-2-methyl-4-nitrophenyl)-1,3-dithiolane]

same assay, conditions: Table 3; read-out: IC50

IC50 [nM] | SMILES
40 | Cc1cccnc1-c1cc(-c2ccc(F)cc2)c(C#N)c(OCc2cccnc2)n1 [2-((Pyridin-3-yl)methoxy)-4-(4-fluorophenyl)-6-(3-methylpyridin-2-yl)pyridine-3-carbonitrile]
120 | Cc1cccnc1-c1cc(-c2ccc(F)cc2)c(C#N)c(OCc2ccncc2)n1 [2-((Pyridin-4-yl)methoxy)-4-(4-fluorophenyl)-6-(3-methylpyridin-2-yl)pyridine-3-carbonitrile]
2700 | N#Cc1c(-c2ccc(F)cc2)cc(-c2ccccn2)nc1OC[C@H]1CCC(=O)N1 [2-((R)-5-(Methoxy)pyrrolidin-2-one)-4-(4-fluorophenyl)-6-(pyridin-2-yl)pyridine-3-carbonitrile]
7.2 | C=CCOc1nc(-c2ccccn2)cc(-c2ccc(F)cc2)c1C#N [2-(Allyloxy)-4-(4-fluorophenyl)-6-(pyridin-2-yl)pyridine-3-carbonitrile]
25 | N#CCOc1nc(-c2ccccn2)cc(-c2ccc(F)cc2)c1C#N [2-(Cyanomethoxy)-4-(4-fluorophenyl)-6-(pyridin-2-yl)pyridine-3-carbonitrile]
1500 | COc1nc(-c2ccccc2)cc(-c2cccc(N)c2)c1C#N [4-(3-Aminophenyl)-2-methoxy-6-phenylpyridine-3-carbonitrile]
1000 | COc1nc(-c2ccc(O)cc2)cc(-c2ccc(F)cc2)c1C#N [4-(4-Fluorophenyl)-6-(4-hydroxyphenyl)-2-methoxypyridine-3-carbonitrile]
14000 | Cc1cccnc1-c1cc(-c2ccc(F)cc2)c(C#N)c(=O)n1CCN1CCOCC1 [4-(4-fluorophenyl)-1,2-dihydro-6-(3-methylpyridin-2-yl)-1-(2-morpholinoethyl)-2-oxopyridine-3-carbonitrile]
10000 | Cc1cccnc1-c1cc(-c2ccc(F)cc2)c(C#N)c(=O)n1Cc1cccnc1 [4-(4-fluorophenyl)-1,2-dihydro-6-(3-methylpyridin-2-yl)-2-oxo-1-((pyridin-3-yl)methyl)pyridine-3-carbonitrile]
680 | COc1nc(-c2ccccn2)cc(-c2ccco2)c1C#N [4-(Furan-2-yl)-2-methoxy-6-(pyridin-2-yl)pyridine-3-carbonitrile]

Continued, compound first:

SMILES | IC50 [nM]
Cc1cccnc1-c1cc(-c2ccc(F)cc2)c(C#N)c(OCCN2CCOCC2)n1 [2-(2-Morpholinoethoxy)-4-(4-fluorophenyl)-6-(3-methylpyridin-2-yl)pyridine-3-carbonitrile] | 270
Cc1cccnc1-c1cc(-c2ccc(F)cc2)c(C#N)c(OCCCN(C)C)n1 [2-(3-(Dimethylamino)propoxy)-4-(4-fluorophenyl)-6-(3-methylpyridin-2-yl)pyridine-3-carbonitrile] | 2700
CN(C)CCCOc1nc(-c2ccccn2)cc(-c2ccc(F)cc2)c1C#N [2-(3-(Dimethylamino)propoxy)-4-(4-fluorophenyl)-6-(pyridin-2-yl)pyridine-3-carbonitrile] | 2200
Cc1cccnc1-c1cc(-c2ccc(F)cc2)c(C#N)c(OCc2ccccn2)n1 [2-((Pyridin-2-yl)methoxy)-4-(4-fluorophenyl)-6-(3-methylpyridin-2-yl)pyridine-3-carbonitrile] | 32
N#Cc1c(-c2ccc(F)cc2)cc(-c2ccccn2)nc1OC[C@@H]1CCC(=O)N1 [2-((S)-5-(Methoxy)pyrrolidin-2-one)-4-(4-fluorophenyl)-6-(pyridin-2-yl)pyridine-3-carbonitrile] | 39000
COc1nc(-c2ccccc2)cc(-c2ccccc2)c1C [2-Methoxy-3-methyl-4,6-diphenylpyridine] | 440
COc1nc(-c2ccccc2)cc(-c2cccc([N+](=O)[O-])c2)c1C#N [2-Methoxy-4-(3-nitrophenyl)-6-phenylpyridine-3-carbonitrile] | 48000
COc1ccc(-c2cc(-c3ncccc3C)nc(OC)c2C#N)cc1 [2-Methoxy-4-(4-methoxyphenyl)-6-(3-methylpyridin-2-yl)pyridine-3-carbonitrile] | 670
COc1nc(-c2ccccc2)cc(-c2cccc(O)c2)c1C#N [4-(3-Hydroxyphenyl)-2-methoxy-6-phenylpyridine-3-carbonitrile] | 1900
COc1nc(-c2ccccc2)cc(-c2ccc(N)cc2)c1C#N [4-(4-Aminophenyl)-2-methoxy-6-phenylpyridine-3-carbonitrile] | 92
COc1nc(-c2ccccc2[N+](=O)[O-])cc(-c2ccc(F)cc2)c1C#N [4-(4-Fluorophenyl)-2-methoxy-6-(2-nitrophenyl)pyridine-3-carbonitrile] | 7
COc1nc(-c2ccccc2)cc(-c2ccc(O)cc2)c1C#N [4-(4-Hydroxyphenyl)-2-methoxy-6-phenylpyridine-3-carbonitrile] | 480
COc1nc(-c2cccc(O)c2)cc(-c2ccc(F)cc2)c1C#N [4-(4-fluorophenyl)-6-(3-hydroxyphenyl)-2-methoxypyridine-3-carbonitrile] | 230
CCOc1nc(-c2ccccc2)nc(-c2ccccc2)c1C#N [4-Ethoxy-2,6-diphenylpyrimidine-5-carbonitrile] | 120
COc1nc(-c2ccccc2N)cc(-c2ccc(F)cc2)c1C#N [6-(2-Aminophenyl)-4-(4-fluorophenyl)-2-methoxypyridine-3-carbonitrile] | 230

same assay, conditions: read-out: IC50 against SQOR

IC50 [nM] | SMILES
9.4 | CCOc1nc2c(c(-c3ccc(F)cc3)c1C#N)Cc1ccccc1-2 [Compound 1, 2-ethoxy-4-(4-fluorophenyl)-5H-indeno[1,2-b]pyridine-3-carbonitrile]
